Assay results from the supplement of paper PMC10307832.

What was measured:
Assay in all cases: relative viability (nuclei count vs DMSO), 5 days (fraction); higher = more cells survive
[1] = compound: CC[C@@H]1C(=O)N(C)c2cnc(Nc3ccc(C(=O)NC4CCN(C)CC4)cc3OC)nc2N1C1CCCC1 [BI-2536] + O=C(c1cc(Cc2n[nH]c(=O)c3ccccc23)ccc1F)N1CCN(C(=O)C2CC2)CC1 [Olaparib] (partner 8 µM)
In short: (§1)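 Lung cancer cell lines, seeded in 1536-well plates, were treated the following day by pin tool with a single drug or with five library-drug doses (not always all listed) in √10 steps on top of a fixed anchor-drug dose. Cells were fixed and nuclei stained in one step after 5 days, and nuclei were counted. Relative viability is the nuclei count for treated wells divided by that for vehicle wells, reported as medians of duplicate plates.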

[2] = compound: CC[C@@H]1C(=O)N(C)c2cnc(Nc3ccc(C(=O)NC4CCN(C)CC4)cc3OC)nc2N1C1CCCC1 [BI-2536] + C[C@@H](Oc1cc(-c2cnn(C3CCNCC3)c2)cnc1N)c1c(Cl)ccc(F)c1Cl [Crizotinib] (partner 1 µM)
In short: as §1

[3] = compound: CC1CC(=O)N(C2=CN=C(N=C2N1C3CCCC3)NC4=C(C=C(C=C4)C(=O)NC5CCN(CC5)C)OC)C [NPK76-II-72-1] + C[C@]1(O)C[C@@H](c2nc(-c3ccc4ccc(-c5ccccc5)nc4c3)c3c(N)nccn32)C1 [Linsitinib] (partner 1 µM)
In short: as §1

[4] = compound: CC[C@@H]1C(=O)N(C)c2cnc(Nc3ccc(C(=O)NC4CCN(C)CC4)cc3OC)nc2N1C1CCCC1 [BI-2536] + Nc1nc2[nH]cc(CCc3ccc(C(=O)N[C@@H](CCC(=O)O)C(=O)O)cc3)c2c(=O)[nH]1 [Pemetrexed] (partner 0.2 µM)
In short: as §1

Row | Cell Line | relative viability ([1]; first compound 0.01 µM) | relative viability ([1]; first compound 0.03162 µM) | relative viability ([1]; first compound 0.1 µM) | relative viability ([1]; first compound 0.3162 µM) | relative viability ([1]; first compound 1 µM) | relative viability ([2]; first compound 0.01 µM) | relative viability ([2]; first compound 0.03162 µM) | relative viability ([2]; first compound 0.1 µM) | relative viability ([2]; first compound 0.3162 µM) | relative viability ([2]; first compound 1 µM) | relative viability ([3]; first compound 0.01 µM) | relative viability ([3]; first compound 0.03162 µM) | relative viability ([3]; first compound 0.1 µM) | relative viability ([3]; first compound 0.3162 µM) | relative viability ([3]; first compound 1 µM) | relative viability ([4]; first compound 0.01 µM) | relative viability ([4]; first compound 0.03162 µM) | relative viability ([4]; first compound 0.1 µM) | relative viability ([4]; first compound 0.3162 µM) | relative viability ([4]; first compound 1 µM)
1 | LXF-289 | 1 | 0.719 | 0.343 | 0.0702 | 0.0622 | 0.822 | 0.693 | 0.456 | 0.0566 | 0.0678 | 0.931 | 0.977 | 0.921 | 0.925 | 1 | 0.932 | 0.812 | 0.503 | 0.0709 | 0.0711
2 | PC-14 | 0.258 | 0.155 | 0.0592 | 0.0538 | 0.0392 | 0.852 | 0.793 | 0.792 | 0.116 | 0.0584 | 0.927 | 1.1 | 0.938 | 0.874 | 1.06 | 0.15 | 0.14 | 0.132 | 0.0335 | 0.0205
3 | NCI-H650 | 0.407 | 0.28 | 0.237 | 0.146 | 0.105 | 0.597 | 0.347 | 0.271 | 0.21 | 0.17 | 0.941 | 1.02 | 0.652 | – | 0.845 | 0.912 | 1.11 | 0.551 | 0.196 | 0.139
4 | NCI-H1666 | 0.76 | 0.704 | 0.671 | 0.545 | 0.583 | 0.924 | 0.899 | 0.503 | 0.306 | 0.321 | 0.78 | 0.815 | 0.783 | 0.8 | 0.79 | 0.822 | 0.881 | 0.831 | 0.543 | 0.57
